{"source": "paper PMC9296036", "about": "“A peptide interfering with the dimerization of oncogenic KITENIN protein and its stability suppresses colorectal tumour progression” (Clinical and Translational Medicine, 2022)", "assay": "Stability of KDIP in mouse serum in vitro (LC-MS/MS)", "assay_type": "in vitro ADME", "settings": "10 pmol KDIP spiked to 10 μl serum, room temperature, 0-160 min (7 times), LC-MS/MS MRM, n=3 per time", "method": "Experiment for stability in serum was conducted with seven different incubation time (0, 5, 10, 20, 40, 80, 160 min). KDIP 10 pmol was spiked to 10 μl of serum, and samples were incubated at room temperature. Samples for each incubation time were triplicated.\nPeptide extraction from serum or tissue lysate was performed by solid‐phase extraction using Oasis HLB Cartridge 1‐cm^3 (30 mg). HLB cartridges were conditioned using ACN (1 ml) and 50% ACN, .5% FA (1 ml), followed by equilibration using .5% FA (2 ml). A volume of 10‐μl serum and 20 μl of tissue lysate were added by .5% FA to be 1 ml and were loaded on equilibrated cartridges. […]\nEach sample was analysed using an Agilent 1100 Series high‐performance liquid chromatography pump (Agilent Technologies, USA) coupled to an LTQ linear ion trap mass spectrometer (Thermo Finnigan, USA). […] Peptide was quantified by multiple reaction monitoring (MRM) in positive ion mode, with a spray voltage of 2.3 kV. […] Furthermore, truncated forms ([…], […]) of KDIP that were detected during stability test were also analysed by following transitions: 468.5 → 404.8 (b16 ^+5), 468.5 → 444.85 (b18 ^+5), 468.5 → 505.7 (b16 ^+4), 468.5 → 551.35 (b18 + H2O^+4), 468.5 → 555.7 (b18 ^+4), 528.45 → 448.85 (b14 ^+4), 528.45 → 499.0 (b16 ^+4), 528.45 → 598.15 (b14 ^+3), 528.45 → 659.25 (b16 + H2O^+3) and 528.45 → 664.95 (b16 ^+3). […]", "note": "Ends that are not written are not given here."}
{"sequence": "YARVRRRGPRRWRLVSDEAV [KDIP]", "values": [{"measurement": "terminal half-life in mouse serum in vitro", "result": 30.86, "unit": "min"}]}
